Measured values as given in paper PMC3382171 (PLoS ONE, 2012).

Assays:
Experiment in all cases: biochemical
Design in all cases: Invitrogen SelectScreen kinase panel, percent inhibition at 1 uM, ATP at Km
Conditions in all cases: read-out: Invitrogen KSS %Inh at 1 µM
[1] = molecular target: TEK (Tie2) (Homo sapiens, UniProt Q02763)
Experimental: (§1) The METi and RAFi were screened against kinase panels (SelectScreen, Invitrogen; University of Dundee, Division of Signal Transduction Therapy, UK; Upstate Biotechnology/Millipore, Billerica, MA). In these selectivity assays the concentration of ATP was set to the Km value of ATP for each kinase tested to allow for a relative potency comparison between the various kinases. The compounds were tested at 1 µM final concentration. […] Supplementary file pone.0039653.s002.pdf: Figure S2 Kinase Selectivity Screen of RAFi. (A) Kinase selectivity screen (KSS) performed at University of Dundee (Division of Signal Transduction Therapy). Values in % inhibition of phosphorylation given 1 µM of RAFi compared to control. (B) KSS performed at Invitrogen (Selectscreen Service) compared to control. Values in % inhibition of phosphorylation given 1 µM of RAFi. (C) Cell based dose response kinase inhibition of indicated kinases by RAFi. (PDF) Click here for additional data file.

[2] = molecular target: RPS6KA3 (RSK2) (Homo sapiens, UniProt P51812)
Experimental: as §1

[3] = molecular target: ABL1 (Homo sapiens, UniProt P00519)
Experimental: as §1

[4] = molecular target: SRC (Homo sapiens, UniProt P12931)
Experimental: as §1

[5] = molecular target: MAPK9 (JNK2) (Homo sapiens, UniProt P45984)
Experimental: as §1

[6] = molecular target: FLT3 D835Y (Homo sapiens, UniProt P36888, D835Y)
Experimental: as §1

[7] = molecular target: HIPK4 (Homo sapiens, UniProt Q8NE63)
Experimental: as §1

[8] = molecular target: ERBB4 (HER4) (Homo sapiens, UniProt Q15303)
Experimental: as §1

[9] = molecular target: MINK1 (Homo sapiens, UniProt Q8N4C8)
Experimental: as §1

[10] = molecular target: PRKCD (PKC delta) (Homo sapiens, UniProt Q05655)
Experimental: as §1

[11] = molecular target: PRKD2 (PKD2) (Homo sapiens, UniProt Q9BZL6)
Experimental: as §1

[12] = molecular target: AKT3 (PKB gamma) (Homo sapiens, UniProt Q9Y243)
Sequence of AKT3 (PKB gamma) (Q9Y243 whole entry): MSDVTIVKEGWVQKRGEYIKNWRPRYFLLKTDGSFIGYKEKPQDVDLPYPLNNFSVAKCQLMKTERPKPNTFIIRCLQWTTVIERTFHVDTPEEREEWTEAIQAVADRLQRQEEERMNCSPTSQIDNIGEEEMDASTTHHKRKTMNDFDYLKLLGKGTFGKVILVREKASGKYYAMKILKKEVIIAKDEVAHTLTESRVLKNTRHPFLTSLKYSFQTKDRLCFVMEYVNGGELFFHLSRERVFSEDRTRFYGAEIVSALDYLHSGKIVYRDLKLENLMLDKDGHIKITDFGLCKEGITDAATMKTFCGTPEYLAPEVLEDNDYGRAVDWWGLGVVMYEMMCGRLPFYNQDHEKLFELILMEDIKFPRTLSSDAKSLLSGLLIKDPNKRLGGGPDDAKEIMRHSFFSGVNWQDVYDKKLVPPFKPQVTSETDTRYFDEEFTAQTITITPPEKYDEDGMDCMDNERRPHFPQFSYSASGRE
Experimental: as §1

[13] = molecular target: T1, CDC42 BPB (MRCKB) (Homo sapiens, UniProt Q9Y5S2)
T1 construct: gene CDC42BPB
T1 sequence (Q9Y5S2 whole entry): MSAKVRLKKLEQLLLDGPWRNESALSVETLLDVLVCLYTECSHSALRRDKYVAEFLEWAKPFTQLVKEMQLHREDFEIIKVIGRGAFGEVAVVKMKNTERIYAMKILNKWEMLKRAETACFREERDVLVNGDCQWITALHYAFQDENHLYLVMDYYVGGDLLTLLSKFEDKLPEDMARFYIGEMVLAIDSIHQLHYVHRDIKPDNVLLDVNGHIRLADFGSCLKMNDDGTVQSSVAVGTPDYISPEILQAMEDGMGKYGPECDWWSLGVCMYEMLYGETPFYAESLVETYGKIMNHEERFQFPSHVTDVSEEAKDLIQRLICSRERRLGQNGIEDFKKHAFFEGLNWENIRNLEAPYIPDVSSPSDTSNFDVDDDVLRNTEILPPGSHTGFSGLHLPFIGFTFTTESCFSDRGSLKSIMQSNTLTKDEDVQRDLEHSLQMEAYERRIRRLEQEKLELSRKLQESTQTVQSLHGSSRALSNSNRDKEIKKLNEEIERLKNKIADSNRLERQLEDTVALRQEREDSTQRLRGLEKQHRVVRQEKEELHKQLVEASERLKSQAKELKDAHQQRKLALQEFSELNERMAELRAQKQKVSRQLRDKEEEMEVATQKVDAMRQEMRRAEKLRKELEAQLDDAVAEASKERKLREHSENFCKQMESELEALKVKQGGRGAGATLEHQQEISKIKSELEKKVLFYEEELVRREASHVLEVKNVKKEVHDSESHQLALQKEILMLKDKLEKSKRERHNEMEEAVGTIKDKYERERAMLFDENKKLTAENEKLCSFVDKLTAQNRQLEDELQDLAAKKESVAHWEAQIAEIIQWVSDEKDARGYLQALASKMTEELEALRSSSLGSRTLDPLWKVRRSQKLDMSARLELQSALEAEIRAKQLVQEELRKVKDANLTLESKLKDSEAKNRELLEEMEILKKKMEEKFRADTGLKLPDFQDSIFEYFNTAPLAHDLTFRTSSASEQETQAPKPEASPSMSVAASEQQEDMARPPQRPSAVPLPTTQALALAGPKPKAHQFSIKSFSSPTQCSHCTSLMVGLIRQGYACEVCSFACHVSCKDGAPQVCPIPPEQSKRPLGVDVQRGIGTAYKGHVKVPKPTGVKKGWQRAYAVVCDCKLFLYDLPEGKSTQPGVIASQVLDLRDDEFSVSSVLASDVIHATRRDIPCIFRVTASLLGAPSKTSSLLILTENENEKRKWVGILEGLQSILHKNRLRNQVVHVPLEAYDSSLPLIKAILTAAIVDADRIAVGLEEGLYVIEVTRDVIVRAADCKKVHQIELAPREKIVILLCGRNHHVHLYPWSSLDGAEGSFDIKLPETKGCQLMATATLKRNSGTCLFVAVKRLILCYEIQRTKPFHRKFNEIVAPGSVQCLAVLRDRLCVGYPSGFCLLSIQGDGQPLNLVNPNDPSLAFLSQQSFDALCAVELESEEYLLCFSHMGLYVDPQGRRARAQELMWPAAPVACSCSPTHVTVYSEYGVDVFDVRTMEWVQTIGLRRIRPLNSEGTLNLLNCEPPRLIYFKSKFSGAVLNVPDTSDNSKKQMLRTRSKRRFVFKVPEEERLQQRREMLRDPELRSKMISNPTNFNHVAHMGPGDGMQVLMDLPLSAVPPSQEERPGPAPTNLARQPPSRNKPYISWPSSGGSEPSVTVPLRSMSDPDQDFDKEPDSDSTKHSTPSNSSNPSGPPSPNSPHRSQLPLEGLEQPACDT
Experimental: as §1

[14] = molecular target: ROS1 (Homo sapiens, UniProt P08922)
Sequence of ROS1 (P08922 whole entry): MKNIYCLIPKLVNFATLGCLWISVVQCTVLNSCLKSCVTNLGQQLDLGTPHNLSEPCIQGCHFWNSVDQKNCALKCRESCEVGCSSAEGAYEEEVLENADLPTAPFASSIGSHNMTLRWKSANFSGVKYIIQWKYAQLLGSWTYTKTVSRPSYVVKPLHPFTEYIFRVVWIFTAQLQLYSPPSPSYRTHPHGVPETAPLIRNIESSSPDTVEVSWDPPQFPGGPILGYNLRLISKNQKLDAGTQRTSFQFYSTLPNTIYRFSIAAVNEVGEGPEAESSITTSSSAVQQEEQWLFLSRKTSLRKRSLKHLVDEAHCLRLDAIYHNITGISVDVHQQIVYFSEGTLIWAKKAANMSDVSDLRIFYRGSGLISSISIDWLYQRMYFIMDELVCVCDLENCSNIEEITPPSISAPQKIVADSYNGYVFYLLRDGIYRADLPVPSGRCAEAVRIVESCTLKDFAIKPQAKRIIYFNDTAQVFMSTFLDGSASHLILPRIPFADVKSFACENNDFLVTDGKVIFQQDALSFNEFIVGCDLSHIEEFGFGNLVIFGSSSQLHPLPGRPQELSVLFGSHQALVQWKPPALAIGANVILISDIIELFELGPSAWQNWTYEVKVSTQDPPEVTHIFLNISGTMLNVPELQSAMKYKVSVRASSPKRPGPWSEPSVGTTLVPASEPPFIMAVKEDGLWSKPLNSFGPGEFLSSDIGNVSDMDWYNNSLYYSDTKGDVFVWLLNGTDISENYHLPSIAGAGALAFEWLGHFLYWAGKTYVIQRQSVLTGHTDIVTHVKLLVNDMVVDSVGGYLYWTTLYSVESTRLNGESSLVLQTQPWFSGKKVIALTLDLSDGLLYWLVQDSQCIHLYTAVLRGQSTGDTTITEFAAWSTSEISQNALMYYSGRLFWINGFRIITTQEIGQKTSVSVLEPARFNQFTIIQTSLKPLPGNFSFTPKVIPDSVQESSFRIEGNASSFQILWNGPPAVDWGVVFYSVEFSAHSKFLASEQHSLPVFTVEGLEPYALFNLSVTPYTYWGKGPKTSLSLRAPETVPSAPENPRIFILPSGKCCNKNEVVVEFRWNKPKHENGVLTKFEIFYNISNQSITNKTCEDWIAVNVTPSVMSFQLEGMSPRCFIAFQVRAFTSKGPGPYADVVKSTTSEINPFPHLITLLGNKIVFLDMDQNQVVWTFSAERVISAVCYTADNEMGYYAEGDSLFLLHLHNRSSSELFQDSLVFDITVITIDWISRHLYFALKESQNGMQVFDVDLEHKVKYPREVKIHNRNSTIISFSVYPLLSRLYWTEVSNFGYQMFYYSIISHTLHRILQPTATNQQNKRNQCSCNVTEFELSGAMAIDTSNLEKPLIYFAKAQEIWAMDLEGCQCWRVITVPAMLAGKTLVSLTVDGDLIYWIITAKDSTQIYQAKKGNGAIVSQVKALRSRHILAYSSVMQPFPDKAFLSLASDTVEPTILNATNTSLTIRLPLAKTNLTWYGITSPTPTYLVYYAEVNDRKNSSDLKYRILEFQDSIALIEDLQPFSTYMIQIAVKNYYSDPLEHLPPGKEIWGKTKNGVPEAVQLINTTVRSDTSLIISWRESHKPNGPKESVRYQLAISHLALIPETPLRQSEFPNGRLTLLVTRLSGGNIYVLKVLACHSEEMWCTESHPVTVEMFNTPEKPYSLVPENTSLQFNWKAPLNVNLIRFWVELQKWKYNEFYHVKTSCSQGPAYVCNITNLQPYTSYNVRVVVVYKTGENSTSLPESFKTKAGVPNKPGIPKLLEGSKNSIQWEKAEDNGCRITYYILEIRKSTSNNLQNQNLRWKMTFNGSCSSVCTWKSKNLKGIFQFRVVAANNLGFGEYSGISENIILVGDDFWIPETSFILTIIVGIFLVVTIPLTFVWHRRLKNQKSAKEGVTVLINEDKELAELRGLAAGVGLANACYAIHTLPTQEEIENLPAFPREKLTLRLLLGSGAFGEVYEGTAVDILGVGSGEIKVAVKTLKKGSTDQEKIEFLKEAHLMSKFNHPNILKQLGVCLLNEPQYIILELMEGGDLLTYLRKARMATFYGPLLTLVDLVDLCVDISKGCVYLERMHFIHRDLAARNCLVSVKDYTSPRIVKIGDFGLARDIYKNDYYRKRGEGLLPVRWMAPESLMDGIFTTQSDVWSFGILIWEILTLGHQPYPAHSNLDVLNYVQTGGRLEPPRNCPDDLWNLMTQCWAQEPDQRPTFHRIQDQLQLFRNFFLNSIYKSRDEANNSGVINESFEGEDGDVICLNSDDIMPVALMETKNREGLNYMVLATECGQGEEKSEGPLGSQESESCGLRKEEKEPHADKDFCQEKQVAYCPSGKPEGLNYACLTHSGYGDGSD
Experimental: as §1

[15] = molecular target: CSK (Homo sapiens, UniProt P41240)
Experimental: as §1

[16] = molecular target: MAP4K2 (GCK) (Homo sapiens, UniProt Q12851)
Experimental: as §1

[17] = molecular target: ABL2 (Arg) (Homo sapiens, UniProt P42684)
Experimental: as §1

[18] = molecular target: PIM1 (Homo sapiens, UniProt P11309)
Experimental: as §1

[19] = molecular target: MAPK14 (p38 alpha)** (Homo sapiens, UniProt Q16539)
Sequence of MAPK14 (p38 alpha)** (Q16539 whole entry): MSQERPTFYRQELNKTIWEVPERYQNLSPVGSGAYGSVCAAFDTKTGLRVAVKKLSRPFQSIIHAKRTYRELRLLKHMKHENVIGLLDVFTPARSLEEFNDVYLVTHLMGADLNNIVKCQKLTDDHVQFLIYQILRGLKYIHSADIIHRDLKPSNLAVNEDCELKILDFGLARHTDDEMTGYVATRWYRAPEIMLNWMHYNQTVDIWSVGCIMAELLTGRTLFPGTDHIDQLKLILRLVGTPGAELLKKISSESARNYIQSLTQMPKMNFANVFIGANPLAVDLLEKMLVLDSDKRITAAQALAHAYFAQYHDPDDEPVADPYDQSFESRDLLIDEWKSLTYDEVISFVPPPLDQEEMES
Experimental: as §1

[20] = molecular target: MAPK1/ERK2 (Homo sapiens, UniProt P28482)
Experimental: as §1

[21] = molecular target: EPHB2 (Homo sapiens, UniProt P29323)
Experimental: as §1

[22] = molecular target: LCK (Homo sapiens, UniProt P06239)
Experimental: as §1

inhibition at 1 µM [1]: 2%
inhibition at 1 µM [2]: -9%
inhibition at 1 µM [3]: 6%
inhibition at 1 µM [4]: 1%
inhibition at 1 µM [5]: 101%
inhibition at 1 µM [6]: 57%
inhibition at 1 µM [7]: 8%
inhibition at 1 µM [8]: 24%
inhibition at 1 µM [9]: 8%
inhibition at 1 µM [10]: 6%
inhibition at 1 µM [11]: 40%
inhibition at 1 µM [12]: 7%
inhibition at 1 µM [13]: 21%
inhibition at 1 µM [14]: 11%
inhibition at 1 µM [15]: 1%
inhibition at 1 µM [16]: -12%
inhibition at 1 µM [17]: -1%
inhibition at 1 µM [18]: 2%
inhibition at 1 µM [19]: 93%
inhibition at 1 µM [20]: 14%
inhibition at 1 µM [21]: 3%
inhibition at 1 µM [22]: 15%
SMILES: N#CCCNc1nccc(-c2cn(CC(F)F)nc2-c2cnc3[nH]ccc3c2)n1 [RAFi, PF-04880594]
